Values quoted from earlier work in US5043340A, “Derivatives of 4-desacetyl VLB C-3 carboxhydrazide” (Eli Lilly and Company, priority 1990, dated 1991).

Columns and labels:
P 1534(J) leukemia = conditions: mouse, in vivo; cited from earlier work
transplanted tumors = conditions: mouse, in vivo; cited from earlier work
[1] = test system: Ridgeway osteogenic sarcoma; conditions: mouse, in vivo; cited from earlier work
Gardner lymphosarcoma = conditions: mouse, in vivo; cited from earlier work
[2] = test system: vincristine-resistant leukemias; conditions: in humans; cited from earlier work
[3] = in humans, compared with vincristine; cited from earlier work

Row | Structure (SMILES) | activity against P 1534(J) leukemia (P 1534(J) leukemia) | anti-tumor activity (transplanted tumors) | activity against Ridgeway osteogenic sarcoma [1] | activity against Gardner lymphosarcoma (Gardner lymphosarcoma) | effective against vincristine-resistant leukemias [2] | neurotoxicity [3]
1 | CCC1(O)CC2CN(CCc3c([nH]c4ccccc34)C(C(=O)OC)(c3cc4c(cc3OC)N(C)C3C(O)(C(=O)NN)C(O)C5(CC)C=CCN6CCC43C65)C2)C1 (stereo not drawn) [4-desacetyl VLB C-3 carboxhydrazide] | active | active anti-tumor agent against transplanted tumors in mice | active | active |  | 
2 | CC[C@]1(O)C[C@@H]2CN(CCc3c([nH]c4ccccc34)[C@@](C(=O)OC)(c3cc4c(cc3OC)N(C)[C@H]3[C@@](O)(C(N)=O)[C@H](O)[C@]5(CC)C=CCN6CC[C@]43[C@@H]65)C2)C1 [vindesine, 4-desacetyl VLB C-3 carboxamide] |  |  |  |  | apparently effective against vincristine-resistant leukemias | less neurotoxicity than does vincristine
